In US12139744B2, “Stabilisation of biological samples” (QIAGEN GmbH, priority 2013, dated 2024):
* marks the point of attachment. Cbz = O=C(OCc1ccccc1)*; CH2F = FC*

Key:
[1] = test system: FOS, IL1B, IL8 and TP53 transcripts; test: Transcript level stabilisation in stored blood, real time RT-PCR; type: cell-based, human; conditions: blood incubated at RT for 0, 24 and 72 hours; DMPA 5% v/v final in EDTA blood, 5xMOPS pH5.5
Excerpt: A test system and study setup was established that allows the identification of reagent compositions that have gene transcript stabilisation capabilities, as indicated by constant levels of transcripts from selected genes (c-fos, IL-1beta, IL-8, p53). These transcripts were identified in prior studies as very unstable transcripts during storage, which are induced or down regulated (gains and losses of transcripts) within minutes after blood collection and were therefore chosen as “worst case” markers for screening purposes.
Blood was collected from multiple donors into replicate EDTA blood tubes (BD, [−] control of sample stabilisation) and PAXgene Blood RNA Tubes (PreAnalytiX) serving as [+] control of sample stabilisation. PAXgene Blood RNA tubes contain a composition (see also background of the invention) that lysis cells and thereby “freeze” the gene transcription profile. PAXgene Blood RNA tubes are for stabilizing blood for gene expression analysis. One aim was to find stabilization method that not based on cell lysis but achieves the same or similar performance as the PAXgene Blood RNA tubes in transcript level stabilization. […]
Transcript levels of all RNA samples were analysed by real time RT-PCR using monoplex assays of FOS, IL1B, IL8 and TP53, normalized to the amount of template input into the reaction. […]

CD3 on lymphocytes = test: aCD3 FACS analysis of cell and cell surface epitope integrity; type: cell-based, human; conditions: EDTA blood, test solution 5% v/v DMPA, RT 0 h, 24 h, 72 h
Description: FIG. 5: Fluorescence activated cell sorting (aCD3 FACS) analysis of sample aliquots from blood collected from one donor into EDTA tubes. Blood aliquots were subjected to FACS using PE-conjugated anti-CD3 antibody from samples that were not incubated after blood collection (0 h) and samples after one and three days of incubation at RT (24 h, 72 h). The number of fluorescence-labelled cells was counted and the intensity of the fluorescence signal per event was quantified. Intensity (x-axis) and number of fluorescence signals (y-axis) are shown as histograms. Thresholds were defined to differentiate unspecific weak fluorescence signals (−) from stronger specific fluorescence signals caused by specifically bound anti-CD3 antibody to cells (+). […]
Cell and cell surface epitope integrity was analysed by fluorescence activated cell sorting (FACS) using fluorescence conjugated anti-CD3 antibody
In addition, cell and cell surface epitope integrity was analysed in the stabilized samples by fluorescence activated cell sorting (FACS). In detail, the presence and accessibility of cell surface proteins was analysed by binding of fluorescence conjugated antibody (PE-labelled anti-CD3) directed against cellular epitope CD3 that is specific for lymphocytes, while other white blood cell subtypes (monocytes, neutrophilic granulocytes) are CD3 negative.

18S ribosomal DNA = test: 18S rDNA increase in plasma of stored blood (qPCR, 66 bp and 500 bp amplicons); type: cell-based, human; conditions: for Released DNA (18S rDNA) after storage: 3 and 6 days RT, vs unstabilized EDTA blood
Description: Blood obtained from donors was collected into 10 ml K2 EDTA tubes (BD). 4.5 ml of the respectively collected blood was mixed with 0.9 ml of different stabilization solutions (see below examples on the details of the tested stabilization solutions).
All stabilized blood samples were set up in triplicates per condition and test time point. At time point 0 (reference), immediately after mixing the stabilization solution and blood, plasma was generated and the circulating extracellular DNA was extracted. The residual stabilized blood sample was stored for three days and six days at room temperature.
Plasma was generated from the stabilized and unstabilized (EDTA) blood samples by inverting the blood containing tubes for four times. Then, the tubes were centrifuged for 10 minutes at 1900×g at 4° C. 2.5 ml of the plasma fraction was transferred into a fresh 15 ml falcon tube and centrifuged for 10 minutes at 16.000×g at 4° C. 2 ml of the respectively cleared plasma was used for extracellular nucleic acid isolation using the QIAamp circulating nucleic acid kit (QIAGEN) according to the manufacturer's instructions.
The isolated extracellular DNA was analyzed using two different qPCR assays, targeting different fragment lengths of the 18S ribosomal DNA:
Cycle threshholds of the individual samples were translated into amount of gDNA in the eluate, according to a gDNA standard curve. The gDNA amount of the storage time points was compared to the time zero gDNA level from the same donor and is shown as fold increase in the figures. Especially the increase of the 500 bp fragment in the plasma fraction of the blood sample after storage is an indication for a lysis/destruction of white blood cells. Thus, the lower the amount of released 500 bp DNA, the better the performance of the stabilization method.

blood samples = test: Inspection of plasma for hemolysis; type: cell-based, human; conditions: Example 4: 2.5% and 5% DMPA with caspase inhibitor
Excerpt: The focus of the analysis was the stabilization of the extracellular nucleic acid population as determined by analyzing the increase of 18S rDNA. Shown is the increase of DNA relative to time point 0 with 2.5%, 5% and 7.5% N,N dimethylpropanamide (DMPA) or 5% DMAA with caspase inhibitor (fold change) using different amplicon lengths of 18SrRNA gene. Bars indicate the mean of the triplicate samples per condition and test time point. […] Thus, a stabilization of the extracellular nucleic acid population was achieved. Furthermore, the obtained plasma was inspected in order to analyse whether hemolysis occurred.

PKC = conditions: cited from earlier work
calpain II = molecular target: T1, calpain II (Homo sapiens, UniProt P17655); conditions: irreversible inhibitor; cited from earlier work
T1 sequence (P17655 1-700): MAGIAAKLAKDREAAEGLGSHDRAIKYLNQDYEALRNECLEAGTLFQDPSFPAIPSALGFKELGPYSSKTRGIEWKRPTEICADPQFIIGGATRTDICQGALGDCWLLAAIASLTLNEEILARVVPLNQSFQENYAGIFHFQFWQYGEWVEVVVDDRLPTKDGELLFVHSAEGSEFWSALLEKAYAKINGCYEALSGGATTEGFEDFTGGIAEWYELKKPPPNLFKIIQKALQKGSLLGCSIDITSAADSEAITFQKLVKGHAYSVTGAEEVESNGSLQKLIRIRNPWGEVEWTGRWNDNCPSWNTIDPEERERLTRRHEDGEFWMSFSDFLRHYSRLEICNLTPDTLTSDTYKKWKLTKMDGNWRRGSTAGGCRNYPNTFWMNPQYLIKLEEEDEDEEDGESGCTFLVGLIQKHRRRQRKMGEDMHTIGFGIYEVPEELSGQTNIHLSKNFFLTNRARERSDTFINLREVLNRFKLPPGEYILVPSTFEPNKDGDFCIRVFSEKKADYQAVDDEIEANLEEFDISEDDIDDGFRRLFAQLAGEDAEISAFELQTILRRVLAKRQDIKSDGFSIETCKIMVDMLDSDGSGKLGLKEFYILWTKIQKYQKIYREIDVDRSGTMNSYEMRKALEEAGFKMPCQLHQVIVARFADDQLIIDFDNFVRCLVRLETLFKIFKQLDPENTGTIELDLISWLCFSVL
T1 sequence (P04632 1-268 partner): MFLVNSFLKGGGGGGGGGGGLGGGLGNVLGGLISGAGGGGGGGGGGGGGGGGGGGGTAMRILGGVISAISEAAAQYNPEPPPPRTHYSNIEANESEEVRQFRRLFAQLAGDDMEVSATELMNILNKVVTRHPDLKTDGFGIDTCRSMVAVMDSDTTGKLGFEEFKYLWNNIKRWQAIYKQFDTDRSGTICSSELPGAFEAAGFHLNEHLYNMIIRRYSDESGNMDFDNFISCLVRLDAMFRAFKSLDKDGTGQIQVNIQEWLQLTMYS

cells = conditions: cited from earlier work

Compound: CCC(=O)N(C)C [DMPA, N,N-dimethylpropanamide]
- Relative transcript levels of FOS, IL1B, IL8 and TP53 (CT values) over storage [1]: stabilised expression levels
- Detection of lymphocytes by PE-conjugated anti-CD3 FACS (CD3 on lymphocytes): detectable for up to three days
- Increase in 18S rDNA relative to time point 0 (18S ribosomal DNA; Example 2: DMPA […], 2% or 2.5% without caspase inhibitor, 7.2 mg K2 EDTA/ml, RT up to 6 days, vs EDTA blood): significantly reduced increase in 18S rDNA
- Released DNA (18S rDNA) after storage (18S ribosomal DNA; Example 3: 2.5%, 5% or 7.5% (v/v) with 1 μM Quinoline-Val-Asp-CH2-OPH and K2 EDTA): significantly lower amounts of released DNA
- Released DNA (18S rDNA) after storage (18S ribosomal DNA; Example 4: 2.5%, 5% or 7.5% DMPA with 1 μM caspase inhibitor, 7.2 mg K2 EDTA/ml): significantly lower amounts of released DNA
- Increase in 18S rDNA relative to time point 0 (18S ribosomal DNA; Example 5: DMPA in different concentrations with 1 μM caspase inhibitor, 7.2 mg K2 EDTA/ml): significantly reduced increase in 18S rDNA
- Hemolysis in plasma obtained from stabilized blood (blood samples): did not show signs of hemolysis

Compound: O=c1c(O)c(-c2ccc(O)c(O)c2)oc2cc(O)cc(O)c12 [Quercetin]
- IC50 PKC (PKC): 15 μg/ml. It strongly abrogated PI3K and Src kinases, mildly

Compound: Cbz-Leu-Leu-Tyr-CH2F [Calpain Inhibitor IV]
- k2 calpain II (calpain II): = 28,900 M-1s-1). Also acts as an inhibitor of cathepsin L (k2 =

Compound: Cbz-Val-Ala-Asp-CH2F
- Cytotoxicity (cells): no added cytotoxic effects
